Measured values from patent publication US20050209157A1, “Short bioactive peptides and methods for their use” (priority 2001, published 2005).
No end group written: not given here.

Test system: human leukocyte (WBC) cells
Experiment: Stimulation and proliferation of leukocytes, Alamar Blue
Type: cell-based
Details: compared to untreated positive control cells; Alamar Blue

Substance: MPKWKVFKKIEKVGRNIRNGIVKAGPAIAVLGEAKALG-NH2 [P12, reference compound]
- stimulatory and/or inhibitory action on growth of human leukocyte (WBC) cells: stimulatory (and/or proliferative) at all concentrations through 500 μg/ml
